What was measured:
[1] = tested on: patients with dyspepsia associated with gastric ulcers, duodenal ulcers, reflux esophagitis and gastroesophageal reflux without esophagitis; conditions: clinical studies; cited from earlier work
[2] = at neutral or acid pH; cited from earlier work
[3] = tested on: patients affected by sleeping disturbance; assay: Administration of esomeprazole to patients affected by sleeping disturbance; type: in vivo, human; conditions: especially with GERD, oral route
Description: This applies especially to patients with GERD.
While the effect on the symptoms of sleeping disturbance have been established in patients who have taken esomeprazole by the oral route, it is believed that the improved effect of esomeprazole is a systemic effect which is not dependent on what mode of administration that is used, and that accordingly the improved effect on sleeping and quality of life will be seen also with other routes of administration such as rectal or parenteral administration.
The invention is further exemplified by the following case studies. During oral treatment with esomeprazole for acid related diseases such as non-erosive and erosive induced upper gastrointestinal disorders, evidence has accumulated that esomeprazole may be beneficial for treatment of sleeping disturbance especially in patients with GERD and endoscopy negative GERD.

Structure (SMILES)	healing of gastroduodenal and esophageal lesions and dyspeptic symptom resolution versus H2 receptor antagonists [1]	storage stability [2]	effect on symptoms of sleeping disturbance [3]
COc1ccc2[nH]c([S+]([O-])Cc3ncc(C)c(OC)c3C)nc2c1 (racemic) [omeprazole, 5-methoxy-2-[[(4-methoxy-3,5-dimethyl-2-pyridinyl)methyl]sulfinyl]-1H-benzimidazole]	superior to H2 receptor antagonists		
COc1ccc2nc([S@@+]([O-])Cc3ncc(C)c(OC)c3C)[nH]c2c1 [esomeprazole, S-5-methoxy-2-[[(4-methoxy-3,5-dimethyl-2-pyridinyl)methyl]sulfinyl]-1H-benzimidazole]		poor storage stability	disappearance or great improvement of the symptoms
